The values below are quoted from earlier work in US8791127B2, “Mucosal bioadhesive slow release carrier for delivering active principles” (BioAlliance Pharma, priority 2006, dated 2014).

In brackets after ≈: the same amount, converted by molar mass.

This series has as its system HSV-1 virus. Particulars: towards HSV-1 virus.

For the compound `Nc1nc2c(ncn2COCCO)c(=O)[nH]1` [acyclovir], the “minimal inhibitory concentration (MIC)” value is 22.5 ng/mL (≈ 0.0999 µM).
